Measurements: patent US20090216117A1, “NOVEL METHOD OF USING TRIACETIN AND AUXILIARY AGENT FOR ULTRASONIC DIAGNOSTIC EXAMINATION” (SHINSHU UNIVERSITY, priority 2005, published 2009)
Entries after “also recorded” stand apart in the source; their conditions may differ.

Experiments:
Beagles [1] = assay: Test 2: Pylorus occlusion test (gastric emptying, Evans blue recovery from duodenum); type: in vivo; conditions: for suppression of quantitative gastric emptying in comparison with physiological saline: 50 mL test fluid into stomach; for percent emptied: after 50 minutes, almost all physiological saline emptied by about 30 minutes
Procedure: To 10 mL of triacetin (Wako Pure Chemical Industries, Ltd.), 40 mL of water was added to make a total volume of 50 mL, thereby making test fluid A.
Ten milliliters of olive oil (Wako Pure Chemical Industries, Ltd.) and 10 mL of propylene glycol were mixed and water was added to make a total volume of 50 mL, thereby making test fluid B.
Half a gram of stearic acid (Wako Pure Chemical Industries, Ltd.) and 20 mL of propylene glycol were mixed and water was added to make a total volume of 50 mL, thereby making test fluid C.
Beagles each weighing about 10 kg were given general anesthesia with an injection of Nembutal (Dainippon Pharmaceutical Co., Ltd.) and following middle incision, tubes were inserted into the body of stomach and the duodenum as shown in FIG. 8 and with each tube being passed subcutaneously through the flank to the back, the dogs received a preliminary invasive operation for an experiment under an unanesthetized condition.
Starting six days after the operation when there were no longer the effects of anesthesia and those of the operative invasion and the general condition had recovered, the study of the sample fluids of interest was started. To be more specific, it is well known that the gastric emptying capability is suppressed under an anesthetized condition, so in the Example under consideration, in order to eliminate that effect and also to determine data for a more normal state, an experiment was conducted under a chronic unanesthetized condition.
To each test fluid, 5 mg of Evans blue (Wako Pure Chemical Industries, Ltd.) was added and 50 mL of the mixture was injected into the stomach of each beagle through the tube indicated by 1 in FIG. 8. Similarly, a tube was placed in the duodenum and the test fluid emptied from the stomach was recovered through the tube indicated by 2 in FIG. 8. At given time intervals, the emptied test fluid was recovered by suction (for one minute) through the tube left in place in the duodenum and the Evans blue contained in it was measured for absorbance (DU R640 SPECTRO PHOTOMETER, product of Beckman Inc.) at a wavelength of 605 nm, to thereby measure the concentration of Evans blue in the suctioned fluid; the amount of recovery was used to determine the gastric emptying rate.

[2] = Test 1: viscosity comparison with Brookfield viscometer; type: physicochemical
Procedure: Using water (ion-exchanged water), an aqueous solution of triacetin, and an aqueous solution of sodium alginate which is a typical viscosity enhancing polysaccharide (KIMICA Corporation, Grade: IL-2), viscosity comparison was made. Viscosity was measured with a Brookfield viscometer (product of TOKIMEC INC., Model BM).

Beagles [3] = assay: Test 3: Measurement of gastric contractile motion by strain gage; type: in vivo
Procedure: Two hundred microliters of triacetin (Wako Pure Chemical Industries, Ltd.) was dissolved in distilled water to make a volume of 20 mL, thereby making test fluid D.
Four milliliters of olive oil (Wako Pure Chemical Industries, Ltd.) was dissolved in distilled water to make a volume of 20 mL, thereby making test fluid E.
Twenty milliliters of distilled water was used as control fluid F.
In order to measure muscular contraction with the strain gage, the submucosa was stretched so that the surface of the mucous membrane would not be incised and the strain gage was buried in the submucosa and sutured thereto, with the wound of incision being closed by a suture.
The tube and the strain gage were subcutaneously guided to the outside of the body from the flank to the back and the dogs received a preliminary invasive operation for an experiment under an unanesthetized condition.
Starting six days after the operation when there were no longer the effects of anesthesia and those of the operative invasion and the general condition had recovered, the study of the sample fluids of interest was started. […]
Note that signals from the strain gage were amplified (VC-11, NIHON KOHDEN) and then AD converted, with the resulting digital data being analyzed with Origin Version 6.5 (OriginLab Corporation). […]

[4] = Dissolution of triacetin in water; type: physicochemical; conditions: ordinary temperature
From the text: If the auxiliary agent for examination in ultrasonic imaging diagnosis is used in the state of an emulsion, the oil-water interface will reflect ultrasound and affect its propagation. […] For instance, triacetin described in the present invention can be dissolved in water in an amount of about 7% at ordinary temperature without forming an emulsion and this concentration is sufficient for suppressing gastric motility.

Viscosity ([2]; 0.2% aqueous solution) [mPa · s]	Viscosity ([2]; 1.0% aqueous solution) [mPa · s]	Viscosity ([2]; 5.0% aqueous solution) [mPa · s]	amount that can be dissolved in water without forming an emulsion [4]	Compound	suppression of quantitative gastric emptying in comparison with physiological saline (Beagles [1])	percent emptied (Beagles [1])	viscosity enhancement as compared with sodium alginate ([2]; aqueous solutions)	time at which the emptied amount peaked (Beagles [1]; 50 mL test fluid A into stomach, physiological saline peaked at about 5 minutes) [min]	pylorus occluding effect (Beagles [1]; 50 mL test fluid injected into stomach, unanesthetized beagles, physiological saline as comparison)	change in amplitude and frequency of contractions (contractile motion of the stomach) (Beagles [3]; 20 μL/kg injected into stomach in phase III, fasted unanesthetized beagles)	duration of the suppression of contractile motion after injection (Beagles [3]; 20 μL/kg, change occurred immediately after the injection)
				CCCCCCCCCCCCCCCCCC(=O)O [stearic acid, reference compound]	obvious suppression	about 10%					
10.1	10.8	16.7	about 7%	CC(=O)OCC(COC(C)=O)OC(C)=O [Triacetin, triacetin]	obviously suppressed	about 5%	considerably less effective in viscosity enhancement	10 to 20	markedly effective in occluding the pylorus	obvious suppression of the contractile motion; also recorded: decreased both the amplitude and frequency of contractions	about three
